Source: patent US9844214B2, “Alpha connexin C-terminal (ACT) peptides for use in transplant” (MUSC Foundation for Research Development, priority 2004, dated 2017)
Entries after “also recorded” stand apart in the source; their conditions may differ.

Legend:
[1] = tested on: HUVECs; test: HUVEC H2O2 oxidative injury model; assay type: cell-based, human; settings: 200 nM H2O2, ±ACT1 peptide
Description: (§1) HUVECs were exposed to two experimental conditions to model organ cold storage and reperfusion injuries. Cells were either (A) exposed to 200 nM H2O2 to induce oxidative injury, or (B) exposed to 6 h of cold preservation in UW at 4° C. in hypoxic conditions in the presence or absence of 100 μM ACT1 peptide, followed by 48 h of reperfusion in normal media.
(§2) HUVECs were exposed to either 18 h of cold storage in UW solution or UW/ACT1 followed by 48 h of reperfusion to model IRI in vitro, as previously described (Atkinson et al., 2013), or H2O2±ACT1 peptide to model oxidative stress. Efficacy was determined by TEER and IL-8 release.

[2] = tested on: human respiratory epithelial cells; test: In vitro cold storage and reperfusion injury model, epithelial cells; assay type: cell-based
[3] = tested on: HUVECs; test: HUVEC cold preservation, hypoxia and reperfusion model; assay type: cell-based, human; settings: 48 h reperfusion
Description: as §1, §2

[4] = tested on: porcine kidney; test: Porcine kidney model of cold ischemia (Cx43, nitrotyrosine, apoptosis staining); set-up: species or system pig
Description: These studies were conducted using kidneys procured from 2 standard criteria donor pigs. The organs were flushed via the aorta with preservation solution after 10 minutes of warm ischemia post-mortem. Biopsies were taken prior to treatment. The kidneys were then flushed with either cold Belzer's solution (control) or the same solution containing 100 μm ACT1 peptide, and stored in the respective solutions on ice for 24 h. Biopsies were taken at regular intervals and sections were stained for Cx43 and nitrotyrosine.

[5] = tested on: mouse cardiac endothelial cells; test: In vitro cold storage and reperfusion injury model, endothelial cells; assay type: cell-based; settings: for IL-8 secretion, endothelial cells (Elisa): UW solution supplemented with ACT1 peptide
Description: These studies were conducted using a modification of the in vitro donor cold storage and reperfusion injury model (Casiraghi et al., 2009). Human umbilical vein endothelial cells (HUVECs) and mouse microvascular endothelial cells were grown to confluence on transwells and transendothelial resistance (TEER) was recorded. To model cold ischemia and reperfusion injury growth, media was removed from the cells and replaced with either ice cold UW solution or UW solution containing ACT1 peptide, and cultures were exposed to 6 h of hypoxia in a hypoxic chamber (Billups-Rothenberg, Del Mar, Calif.) at 4° C. Following hypoxic exposure, UW solution was removed, and to stimulate reperfusion, UW solution was replaced with fresh pre-warmed (37° C.) culture media, and cells were monitored for 24 h. TEER was measured at three time points post reperfusion as a marker of endothelial/epithelial cell death and dysfunction. A loss of […], as measured by TEER, across the cellular monolayer is associated with a loss of cell-cell communication (thus, gap junction and tight junction injury), cell injury, and a leaky endothelial cell lining. In vivo, this would translate as dysfunction of the cell layer and facilitate uncontrolled fluid trafficking, loss of vascular tone, reduced barrier function that would facilitate immune cell infiltration.

[6] = tested on: mouse tracheas; test: Mouse trachea cold storage histology; settings: 6 h at 4° C. in PBS+ACT1 peptide vs PBS
[7] = tested on: Balb/c donor hearts implanted into B6 recipients; test: Mouse heterotopic heart allotransplantation model, 48 h post transplantation; assay type: in vivo
Description: Heart allograft transplants were performed between Balb/c donors to B6 recipients. Balb/c donor hearts were removed, perfused with UW solution and then static cold stored in either UW solution alone or UW solution supplemented with 100 μM ACT1 peptide for 6 h at 4° C. Following storage, hearts were implanted into B6 recipients using an abdominal heart transplant procedure.
Heterotopic abdominal heart transplants were performed between Balb/c and C57Bl/6 mice, as previously described (Gao et al., 2014). Donor hearts were cold preserved in UW or UW/ACT1 ([…]) for 6 h at 4° C. Following storage, hearts were then implanted and harvested at 48 h post transplantation to access the impact of ACT1 peptide post-treatment on IRI. Post transplant injury was assessed by analyses of serum Cardiac Troponin I and histological scoring of cardiac graft injury (FIG. 9) and inflammation; neutrophil and macrophage infiltration (FIG. 10), and pro-inflammatory cytokine.

[8] = mouse, in vivo
Description: Three CD1 mice were anesthetized by IP injection of 0.2 mL Salazine/ketamine. 10 μL of 1 mM ACT1 peptide dissolved in a solution containing normal saline and 0.05% Brij-78 was gently dripped onto the corneal surface of both eyes and allowed to permeate for 20 or 40 min. 0.05% Brij-78 in normal saline was used on a control mouse. The mice were sacrificed in a CO2 chamber and cervically dislocated at 20, 40 min (the control mouse sacrificed at 20 min). The eyes were removed and rinsed in PBS. A small incision was made in the anterior chamber and the aqueous humor (˜10 μL) was transferred to tube and flash frozen in a dry ice ethanol bath. The total sample was dissolved in 2× samples loading buffer and loaded on a 10-20% Tris-Tricine gel. Gel was transferred to a PDVF membrane and stained using RBT Sigma anti-CX43 CT antibody (1:10000) and a goat anti-RBT AP secondary (1:15000) to reveal the ACT1 band at <10 kDa.

[9] = tested on: ARPE-19 cells; test: VEGF-induced deterioration of trans-epithelial resistance (TER) in ARPE19 monolayers; assay type: cell-based, human; settings: ARPE19 monolayers pre-treated with the ACT peptide
Text: Thus, while not wishing to be bound by theory, stabilizing the tight junction proteins with the ACT peptide can prevent loss of tight-junction disintegration and thus damage to RPE/Bruch's membrane.

[10] = UW solution with 100 μM ACT1, 6 h hypoxia at 4° C., 4, 8 and 24 h post reperfusion, listed as ACT1 peptide
[11] = UW + 100 μM ACT1, 6 h at 4° C., 48 h post transplantation, n=6, listed as ACT1 peptide
[12] = UW/ACT1 (1000 μM) 6 h at 4° C., 48 h, n=3-6

RQPKIWFPNRRKPWKKRPRPDDLEI [ACT1]
Trans-endothelial resistance after H2O2 oxidative injury [1]: significantly protects endothelial cells from H2O2 to induce oxidative stress | IL-8 secretion, epithelial cells ([2]; UW solution supplemented with ACT1 peptide): significant reduction in IL-8 secretion | TEER / cellular injury, epithelial cells [2, 10]: significantly elevated TEER readings; also recorded: significantly reduced cellular injury | Trans-endothelial resistance after cold preservation, hypoxia and reperfusion ([3]; 6 h cold preservation in UW at 4° C., hypoxic, 100 μM ACT1): significantly protects endothelial cells from H2O2 to induce oxidative stress, and cold preservation, hypoxic reperfusion injury | IL-8 secretion after cold preservation, hypoxia and reperfusion ([3]; UW ± 100 μM ACT1): rendered less pro-inflammatory as compared to untreated cells | apoptosis (TUNEL and caspase) ([4]; 100 μM ACT1, cold ischemia 24 h): minimizes mitochondrial oxidant production (nitrotyrosine) and apoptosis (TUNEL and caspase) | Cx43 staining (gap junctions) ([4]; 100 μM ACT1 in cold Belzer's solution, up to 24 h cold ischemia, listed as ACT1 peptide): stabilizes gap junctions (Cx43); also recorded: Punctate Cx43 staining in the membrane (gap junctions) were preserved | IL-8 secretion, endothelial cells (Elisa) [5]: significantly reduced pro-inflammatory cytokine (IL-8) release | IL-8 secretion, endothelial cells (Elisa) ([5]; listed as ACT1 peptide): significant reduction in IL-8 secretion | TEER / cellular injury, endothelial cells [5, 10]: significantly elevated TEER readings; also recorded: significantly reduced cellular injury | trachea histology [6]: preserved trachea histology | Histological injury score (FIG. 6A) [7, 11]: significantly reduced cardiac injury | neutrophil infiltration (FIG. 6C) [7, 11]: significantly reduced neutrophil | serum cardiac troponin I levels (FIG. 6B) [7, 11]: reduced serum cardiac troponin I; also recorded: significantly reduced | macrophage (Mac-3) infiltration, immunohistochemistry (FIG. 10B) [7, 12]: significantly reduces post transplant innate immune cell infiltration | neutrophil (Gr-1) infiltration, immunohistochemistry (FIG. 10A) [7, 12]: significantly reduces post transplant innate immune cell infiltration | serum concentration of Cardiac troponin I (FIG. 9B) ([7]; UW/ACT1 (1000 μM) 6 h at 4° C., 48 h post transplantation, n=3-6): significantly reduces post transplantation IRI injury | post transplantation IRI injury, histological grading (FIG. 9A) ([7]; UW/ACT1 (1000 μM) 6 h at 4° C., 48 h post transplantation, n=3-6, listed as ACT1 peptide): significantly reduces ischemic reperfusion induced graft injury and inflammation; also recorded: significantly reduces post transplantation IRI injury | ACT1 in fluid from the posterior chamber (vitreous humor), Western blot [8]: Lower levels of ACT1 could also be detected | VEGF-induced deterioration of TER [9]: prevents VEGF-induced deterioration of TER
